# Measurements from ChEMBL document CHEMBL3745709, “Synthesis of novel ethyl 1-ethyl-6-fluoro-7-(fatty amido)-1,4-dihydro-4-oxoquinoline-3-carboxylate derivatives and their biological evaluation” (Bioorg Med Chem Lett, 2016).
# Legend:
# [1] = Antioxidant activity assessed as DPPH free radical scavenging activity; format: physicochemical
# [2] = system: Pseudomonas aeruginosa; test: Antibacterial activity against Pseudomonas aeruginosa MTCC 2453 assessed as inhibition zone after 24 hrs at 30 degC by well diffusion method; format: functional; settings: MTCC 2453, 24 h
# [3] = system: MCF7; test: Cytotoxicity against human MCF7 cells assessed as reduction in cell viability by MTT assay; format: functional, cell-based
# [4] = system: Staphylococcus aureus; test: Antibacterial activity against Staphylococcus aureus MLS-16 MTCC 2940 assessed as inhibition zone after 24 hrs at 30 degC by well diffusion method; format: functional; settings: MLS-16 MTCC 2940, 24 h
# [5] = system: Bacillus subtilis; test: Antibacterial activity against Bacillus subtilis MTCC 121 assessed as inhibition zone after 24 hrs at 30 degC by well diffusion method; format: functional; settings: MTCC 121, 24 h
# [6] = system: Escherichia coli; test: Antibacterial activity against Escherichia coli MTCC 739 assessed as inhibition zone after 24 hrs at 30 degC by well diffusion method; format: functional; settings: MTCC 739, 24 h
# [7] = Cytotoxicity against human SKOV3 cells assessed as reduction in cell viability by MTT assay; format: functional, cell-based; settings: SK-OV-3
# [8] = system: Candida albicans; test: Antifungal activity against Candida albicans MTCC 3017 […] after 24 hrs at 30 degC by well diffusion method; format: functional; settings: MTCC 3017, 24 h
# [9] = system: A549; test: Cytotoxicity against human A549 cells assessed as reduction in cell viability by MTT assay; format: functional, cell-based
# [10] = system: Raoultella planticola; test: Antibacterial activity against Klebsiella planticola MTCC 530 assessed as inhibition zone after 24 hrs at 30 degC by well diffusion method; format: functional; settings: MTCC 530, 24 h
# [11] = system: Micrococcus luteus; test: Antibacterial activity against Micrococcus luteus MTCC 2470 assessed as inhibition zone after 24 hrs at 30 degC by well diffusion method; format: functional; settings: MTCC 2470, 24 h
# [12] = Cytotoxicity against human DU145 cells assessed as reduction in cell viability by MTT assay; format: functional, cell-based; settings: DU-145
# [13] = system: Staphylococcus aureus; test: Antibacterial activity against Staphylococcus aureus MTCC 96 […] after 24 hrs at 30 degC by well diffusion method; format: functional; settings: MTCC 96, 24 h
# [14] = system: A549; test: Selectivity index, ratio of IC50 for human IMR90 cells to IC50 for human A549 cells; format: functional
# [15] = Cytotoxicity against human IMR90 cells assessed as reduction in cell viability by MTT assay; format: cell-based; settings: IMR-90
# [16] = system: SK-OV-3; test: Selectivity index, ratio of IC50 for human IMR90 cells to IC50 for human SKOV3 cells; format: functional
# [17] = system: IMR-90; test: Selectivity index, ratio of IC50 for human IMR90 cells to IC50 for human MCF7 cells; format: functional
# [18] = system: IMR-90; test: Selectivity index, ratio of IC50 for human IMR90 cells to IC50 for human DU145 cells; format: functional
compound,measurement,setting,value
C=CCCCCCCCCC(=O)Nc1cc2c(cc1F)c(=O)c(C(=O)OCC)cn2CC,EC50,[1],147.5 µg/mL
same,MIC,[2],> 125 µg/mL
same,IC50,[3],64.6 µM
same,MIC,[4],> 125 µg/mL
same,MIC,[5],> 125 µg/mL
same,MIC,[6],> 125 µg/mL
same,IC50,[7],91.2 µM
same,MIC,[8],> 125 µg/mL
same,IC50,[9],66.5 µM
same,MIC,[10],> 125 µg/mL
same,MIC,[11],> 125 µg/mL
same,IC50,[12],87.3 µM
same,MIC,[13],> 125 µg/mL
CCCCCCCCCCCC(=O)Nc1cc2c(cc1F)c(=O)c(C(=O)OCC)cn2CC,EC50,[1],Not Active
same,MIC,[2],> 125 µg/mL
same,IC50,[3],11.2 µM
same,MIC,[4],> 125 µg/mL
same,MIC,[5],> 125 µg/mL
same,MIC,[6],> 125 µg/mL
same,IC50,[7],9.8 µM
same,MIC,[8],> 125 µg/mL
same,Ratio IC50,[14],7.7
same,IC50,[15],79.8 µM
same,IC50,[9],10.3 µM
same,MIC,[10],> 125 µg/mL
same,MIC,[11],> 125 µg/mL
same,Ratio IC50,[16],8.1
same,Ratio IC50,[17],7.1
same,Ratio IC50,[18],6.6
same,IC50,[12],12.1 µM
same,MIC,[13],> 125 µg/mL
CCCCCCCC(=O)Nc1cc2c(cc1F)c(=O)c(C(=O)OCC)cn2CC,EC50,[1],109.8 µg/mL
same,MIC,[2],> 125 µg/mL
same,IC50,[3],7.9 µM
same,MIC,[4],> 125 µg/mL
same,MIC,[5],> 125 µg/mL
same,MIC,[6],> 125 µg/mL
same,IC50,[7],8.1 µM
same,MIC,[8],> 125 µg/mL
same,Ratio IC50,[14],9.9
same,IC50,[15],91.2 µM
same,IC50,[9],9.2 µM
same,MIC,[10],> 125 µg/mL
same,MIC,[11],> 125 µg/mL
same,Ratio IC50,[16],11.2
same,Ratio IC50,[17],11.5
same,Ratio IC50,[18],9
same,IC50,[12],10.1 µM
same,MIC,[13],> 125 µg/mL
CCCCCCCCCCCCCCCCCC(=O)Nc1cc2c(cc1F)c(=O)c(C(=O)OCC)cn2CC,EC50,[1],798.8 µg/mL
same,MIC,[2],> 125 µg/mL
same,IC50,[3],28.4 µM
same,MIC,[4],> 125 µg/mL
same,MIC,[5],> 125 µg/mL
same,MIC,[6],> 125 µg/mL
same,IC50,[7],35.2 µM
same,MIC,[8],> 125 µg/mL
same,IC50,[9],32.6 µM
same,MIC,[10],> 125 µg/mL
same,MIC,[11],> 125 µg/mL
same,IC50,[12],37.1 µM
same,MIC,[13],> 125 µg/mL
CCCCCCCCCCCCCC(=O)Nc1cc2c(cc1F)c(=O)c(C(=O)OCC)cn2CC,EC50,[1],286 µg/mL
same,MIC,[2],> 125 µg/mL
same,IC50,[3],9.1 µM
same,MIC,[4],> 125 µg/mL
same,MIC,[5],> 125 µg/mL
same,MIC,[6],> 125 µg/mL
same,IC50,[7],8.2 µM
same,MIC,[8],> 125 µg/mL
same,Ratio IC50,[14],9
same,IC50,[15],86.4 µM
same,IC50,[9],9.6 µM
same,MIC,[10],> 125 µg/mL
same,MIC,[11],> 125 µg/mL
same,Ratio IC50,[16],10.5
same,Ratio IC50,[17],9.4
same,Ratio IC50,[18],8.3
same,IC50,[12],10.4 µM
same,MIC,[13],> 125 µg/mL
CCCCCCCC/C=C/CCCCCCCC(=O)Nc1cc2c(cc1F)c(=O)c(C(=O)OCC)cn2CC,EC50,[1],750.7 µg/mL
same,MIC,[2],> 125 µg/mL
same,MIC,[4],> 125 µg/mL
same,MIC,[5],> 125 µg/mL
same,MIC,[6],> 125 µg/mL
same,MIC,[8],> 125 µg/mL
same,MIC,[10],> 125 µg/mL
same,MIC,[11],> 125 µg/mL
same,MIC,[13],> 125 µg/mL
